For one data set, the system named is MT-I/MT-II. Description: Western blot of liver lysates, MT-I/II. In kind it is in vivo, mouse. As to conditions: 6 hours and 24 hours. As for the experimental part:
(§1) Frozen mouse livers were minced into 50 mg samples on dry ice and homogenized in ice-cold RIPA buffer (25 mM Tris.HCl pH 7.6, 150 mM NaCl, 1% NP-40, 1% sodium deoxycholate, 0.1% SDS) containing protease inhibitor cocktail with EDTA (Roche) at 100 mg/mL using a hand-held mechanical homogenizer. Homogenates were incubated on ice for 30 min and centrifuged at 12,000×g for 20 min at 4° C. The soluble protein lysates were collected from underneath the upper lipid layer with a pipette and transferred to new tubes. Protein concentration was determined using a detergent-compatible Bradford Assay (Pierce).
(§2) Protein lysates were denatured in NuPAGE lithium dodecyl sulfate sample buffer (Invitrogen) containing 10% v/v β-mercaptoethanol as a reducing agent. […] The membranes were washed 5 times for 5 minutes in TBST, then visualized using enhanced chemiluminescence (Western Lighting Plus for visualizing CCS and ATP7B, Perkin Elmer; Western Clarity Max for visualizing CTR1 and MT, Bio-Rad) recorded on a BioRad GelDoc imaging station. β-actin was probed to determine equal loading using anti-β-actin (sc-69879, Santa Cruz Biotechnology) and AlexaFluor 647-conjugated anti-mouse IgG (A31571, Molecular Probes) antibodies at 1:5000 and 1:2500 dilutions, respectively, with visualization using fluorescence recorded on a BioRad GelDoc imaging station.
On the technique in general: Immunoblotting shows a protein as a band on a membrane.

Another data set deals with liver tissue. The data set is described as follows: Liver tissue histology, H&E staining. In kind it is in vivo. As for the experimental part: FVB-luc+ mice were injected i.p. with vehicle (50 μL 1:1 DMSO:DPBS), Cu(gtsm), or Gal-Cu(gtsm) at a 0.75 mg Cu/kg mouse dose. After six hours, mice were euthanized with CO2 asphyxiation followed by cervical dislocation and liver tissue was extracted. Liver sections were fixed in a 10% formalin in PBS solution and sent to Histowiz Inc. (Brooklyn, N.Y.) for further processing and hematoxylin & eosin staining.

The test system of a further data set is ATP7B. The data set is described as follows: Western blot of liver lysates, ATP7B. The format is in vivo, mouse. As to conditions: 6 and 24 hours. The method, then: as §1, §2
A further data set deals with CTR1. Description: Western blot of liver lysates, CTR1. To be noted: 6 and 24 hour timepoints. In kind it is in vivo, mouse. The method, then: as §1, §2

Consider `CNC1=N[N+]2=CC=[N+]3N=C(NCCOCCOCCOC4OC(CO)C(O)C(O)C4NC(C)=O)[S][Cu-2]23[S]1` (centres unmarked) [Gal-Cu(gtsm)], for which, in the data set with MT-I/MT-II, the “MT-I/MT-II expression in liver” value is recorded as “increases dramatically”. Also, the “toxicity as indicated by liver histology and toxicity assays” value with liver tissue (0.75 mg Cu/kg i.p.) is recorded as “non-toxic”. For the same compound, the “H&E liver histology” value with liver tissue (6 hours, 0.75 mg Cu/kg mouse) was “largely resemble those of the vehicle-treated control mice”. Besides, in the data set with ATP7B, the “ATP7B expression in liver” value is “increased”. In addition, in the data set with CTR1, the “CTR1 expression (monomer and truncated forms) in liver” value was “Increased expression”.
